# Measured values reported in US20240358020A1, “FORMAMIDE DERIVATIVE AND AGRICULTURAL OR HORTICULTURAL PLANT DISEASE CONTROL AGENT” (Kumiai Chemical Industry Co., Ltd., priority 2021, published 2024).
# Key:
# Format in all cases: in vivo
# [1] = tested on: Wheat rust (Puccinia recondita); experiment: Wheat rust control effect test; conditions: chemical solution 50 ppm active ingredient sprayed on wheat seedlings, then spray-inoculated; first leaf examined after 9 days
# Excerpt: (§1) [in the formula, N represents the total number of examined leaves, n0 represents the number of leaves having a disease severity index of 0, n1 represents the number of leaves having a disease severity index of 1, n2 represents the number of leaves having a disease severity index of 2, n3 represents the number of leaves having a disease severity index of 3, and n4 represents the number of leaves having a disease severity index of 4.]
# [Test Example 2] Wheat rust (Puccinia recondita) control effect test Wheat seeds were sown in a pot, and a chemical solution was sprayed on the grown seedlings so that the concentration of the active ingredient was 50 ppm. Thereafter, a wheat rust fungus was spray-inoculated, the pot was transferred to a wet room and was kept under dark conditions, and invasion of pathogens was promoted. Thereafter, the pot was managed in a greenhouse, after 9 days, a degree of disease severity for each first leaf was examined according to the criteria in Table 220 to determine a degree of disease severity by a calculation formula of Equation 1, and a control value was determined by a calculation formula of Equation Formula 2.
# [2] = tested on: Rice Sheath Blight Disease (Rhizoctonia solani); experiment: Rice sheath blight disease control effect test; conditions: chemical solution 50 ppm active ingredient sprayed on rice seedlings, then inoculated with bran medium culture; lesion height examined after 5 days
# Excerpt: as §1
# [Test Example 3] Rice Sheath Blight Disease (Rhizoctonia solani) Control Effect Test
# Rice seeds were sown in a pot, and a chemical solution was sprayed on the grown seedlings so that the concentration of the active ingredient was 50 ppm. Thereafter, a bran medium in which a rice sheath blight fungi was cultured was inoculated into the strain, the bran medium was transferred to a wet room, and invasion of pathogens was promoted. Thereafter, the pot was managed in a greenhouse, after 5 days, a lesion height was examined according to the criteria in Table 221 to determine a degree of disease severity by a calculation formula of Equation 1, and a control value was determined by a calculation formula of Equation 2.
# [3] = tested on: Soybean Rust (Phakopsora pachyrhizi); experiment: Soybean rust control effect test; conditions: sprayed on soybean seedlings at 100 g a.i./ha, then spray-inoculated; disease severity of first leaf examined after 12 to 14 days
# Excerpt: [Test Example 1] Soybean Rust (Phakopsora pachyrhizi) Control Effect Test
# Soybean seeds were sown in a pot and sprayed on the grown seedlings so that the amount of the active ingredient was 100 g a.i./ha. Thereafter, a soybean rust fungus was spray-inoculated, the pot was transferred to a wet room and was kept under dark conditions, and invasion of pathogens was promoted. Thereafter, the pot was managed in a greenhouse, after 12 to 14 days, a degree of disease severity for each first leaf was examined according to the criteria in Table 226 to determine a degree of disease severity by a calculation formula of Equation 1, and a control value was determined by a calculation formula of Equation 2.
# as §1
smiles,measurement,setting,value
CCC(=O)N(Cc1ccccc1)c1ccc(-c2noc(C(F)(F)F)n2)cc1 [comparative compound],control value,[1],≤ 12.5
same,control value,[2],≤ 12.5
same,control value,[3],less than 60
